From patent publication US12459952B2, “TREM2 modulators” (Muna Therapeutics ApS, priority 2024, dated 2025)
pEC50: −log10 of the molar value.

Molecular target: T1, Human TREM2 (Homo sapiens, UniProt Q9NZC2)
T1 construct: expressed in transfected cells
Experiment: Human TREM2 cellular phospho-Syk AlphaLISA assay in HEK293/DAP12+TREM2 stable cell line
Format: cell-based
Conditions: HEK293/DAP12+TREM2 cells; for Emax: maximal response relative to the maximal response of the reference agonist, phospho-Syk AlphaLISA; for pEC50: phospho-Syk (Tyr525/526) AlphaLISA signal, 30 min incubation
Description: Human TREM2, in vitro Measurement of Triggering Receptor Expressed on Myeloid Cells 2 activity using cellular phosphorylation of Spleen Tyrosine Kinase (“Syk”) Assay
HEK-293 cells were co-transfected with separate plasmids encoding TREM2 and DAP12 to generate a stable cell line. After antibiotic selection, functional clone pool analysis and two successive limiting dilutions, the final clone “HEK293/DAP12+TREM2” underwent a qPCR analysis and a pharmacological validation.
TREM2 signaling through DAP12 was monitored in the HEK293/DAP12+TREM2 stable cell line by measuring the phosphorylation levels of the Syk kinase using the commercially available AlphaLISA SureFire Ultra p-SYK (Tyr525/526) Assay Kit (PerkinElmer #ALSU-PSYK), based on the Perkin Elmer AlphaScreen/AlphaLISA technology.
Compounds are transferred to the test plate and tested in full dose response, 8 concentrations in quadruplicate data points. Compound serial dilutions were performed at Cybi-Felix instrument in 100% DMSO and the dose response curves were assembled in automated fashion in 384MPT at Hamilton STARlet instrument. All the stock solutions were prepared at 20 mM in 100% DMSO. For compounds testing, the starting concentration was 100 μM, dilution steps 1:6. A different concentration's range was adapted for compound's activity based on the preliminary results. Finally, a 384MPT reformatted for all compounds at 8 concentrations, quadruplicates, was used as “mother to child” process with a CyBi@-Well dispenser in which 1 μL of each compound was moved into a destination plate pre-filled with […] of EMEM cell culture medium (BIOWHITTAKER_cat.BE12-125F), thus obtaining 3× concentrated compounds working solution. In columns 1-2 and 23-24 the control wells were added. In particular, dose response curves of a reference control agonist were included in column 1 and 24 as reference control agonist (Reference control agonists used include Human TREM2 polyclonal Antibody AF1828: R&D Systems; Human TREM2 monoclonal Antibody MAB1828: R&D Systems). The dose response curves were tested starting at 30 μM, dilution step 1:6. Both “source” compound plate and “destination” compound plate were barcoded and a relationship between the two plates was thus generated.
HEK293/DAP12+TREM2 cells were cultured in EMEM medium supplemented with IX Penicillin/Streptomycin (BIOWHITTAKER_cat.DE17-602E), ULTRAGLUTAMINE I 200 mM, 10% Fetal Bovine Serum plus antibiotics referred to as “HEK293 Culture Medium”. The day before the experiment, cells were detached by gentle wash with DPBS, followed by 5 min incubation at 37° C. with Trypsin solution. Cells were then diluted in HEK293 Culture Medium without antibiotics, counted and seeded into 384-well poly-D-Lysine coated microplates black/clear bottom (GREINER 781946) at a density of 10,000 cells/well in 25 μL/well by the use of a MATRIX WellMate dispenser. Plates were placed into a humidified cell culture incubator at 37° C. with 5% CO2 until the experimental day. 20-24 hours after seeding mature medium was removed and replaced with 10 μL/well of EMEM cell medium supplemented with 0.1% Pluronic F-68 non-ionic surfactant (Thermofisher, 24040032), referred to as “Assay Buffer”, using the CyBi@-Well instrument. Then 5 μL/well of Assay Buffer containing 3× concentrated test compounds or the reference control agonist (in 0.5% final DMSO concentration) were added to the cells with the CyBi@-Well instrument. Cell plates were incubated for 30 min into a humidified cell culture incubator at 37° C. with 5% CO2, then the medium was removed by manually discard. 20 μL/well of lysis buffer were dispensed using the CyBi@-Well instrument and plates were incubated for 10 min at room temperature on a plate shaker (350 rpm). Then, 10 μL/well of lysate were transferred to the Alpha plates.
The CyBi@-Well instrument was used to dispense 5 μL/well of AlphaLISA Acceptor Bead Solution in IX Immunoassay buffer (Perkin Elmer AL000F). […]

T1 sequence (Q9NZC2 19-230): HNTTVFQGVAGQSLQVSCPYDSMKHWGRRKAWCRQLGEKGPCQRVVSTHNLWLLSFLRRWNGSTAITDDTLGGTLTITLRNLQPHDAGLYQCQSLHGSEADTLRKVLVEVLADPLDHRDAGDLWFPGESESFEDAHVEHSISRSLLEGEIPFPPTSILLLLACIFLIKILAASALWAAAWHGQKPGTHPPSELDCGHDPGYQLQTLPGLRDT
T1 sequence (O43914 22-113 partner): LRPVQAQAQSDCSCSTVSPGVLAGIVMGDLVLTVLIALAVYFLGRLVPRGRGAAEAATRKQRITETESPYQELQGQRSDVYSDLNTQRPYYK

`Cn1c(C(F)(F)F)nc2c(-c3ccc(C#N)cc3F)nc(N3CC(Oc4ccnc(C(F)F)c4)C3)nc2c1=O` [Example 23, 4-(2-(3-((2-(difluoromethyl)pyridin-4-yl)oxy)azetidin-1-yl)-7-methyl-8-oxo-6-(trifluoromethyl)-7,8-dihydropyrimido[5,4-d]pyrimidin-4-yl)-3-fluorobenzonitrile] gave an Emax of 75 to 110% and a pEC50 of 7.00 to 8.00.

For `CN(c1cnn(C2CC2)c1)C1CN(c2nc(-c3ccc(F)cc3F)c3nc(C(F)(F)F)n(C)c(=O)c3n2)C1` [Example 33, 6-(3-((1-cyclopropyl-1H-pyrazol-4-yl)(methyl)amino)azetidin-1-yl)-8-(2,4-difluorophenyl)-3-methyl-2-(trifluoromethyl)pyrimido[5,4-d]pyrimidin-4(3H)-one], the Emax was 75 to 110% and the pEC50 was 6.00 to 7.00.

With `Cn1c(C(F)(F)F)nc2c(-c3ccc(C#N)cc3F)nc(N3CC(Oc4cnn(C5CCC5)c4)C3)nc2c1=O` [Example 16, 4-(2-(3-((1-cyclobutyl-1H-pyrazol-4-yl)oxy)azetidin-1-yl)-7-methyl-8-oxo-6-(trifluoromethyl)-7,8-dihydropyrimido[5,4-d]pyrimidin-4-yl)-3-fluorobenzonitrile] the Emax was 75 to 110% and the pEC50 was 7.00 to 8.00.

Molecule `CCc1nnc(OC2CN(c3nc(-c4ccc(C#N)cc4F)c4nc(C(F)(F)F)n(C)c(=O)c4n3)C2)s1` [Example 4, 4-(2-(3-((5-ethyl-1,3,4-thiadiazol-2-yl)oxy)azetidin-1-yl)-7-methyl-8-oxo-6-(trifluoromethyl)-7,8-dihydropyrimido[5,4-d]pyrimidin-4-yl)-3-fluorobenzonitrile] has an Emax of 75 to 110% and a pEC50 of 6.00 to 7.00.

Work on `Cn1c(C(F)(F)F)nc2c(-c3ccc(C#N)cc3F)nc(N3CC(Oc4ccnc(C#N)c4)C3)nc2c1=O` [Example 20, 4-((1-(4-(4-cyano-2-fluorophenyl)-7-methyl-8-oxo-6-(trifluoromethyl)-7,8-dihydropyrimido[5,4-d]pyrimidin-2-yl)azetidin-3-yl)oxy)picolinonitrile] yielded an Emax of 75 to 110% and a pEC50 of 7.00 to 8.00.

`Cn1c(C(F)(F)F)nc2c(-c3ccc(C#N)cc3F)nc(N3CC(Oc4cnn(C5CCCC5)c4)C3)nc2c1=O` [Example 18, 4-(2-(3-((1-cyclopentyl-1H-pyrazol-4-yl)oxy)azetidin-1-yl)-7-methyl-8-oxo-6-(trifluoromethyl)-7,8-dihydropyrimido[5,4-d]pyrimidin-4-yl)-3-fluorobenzonitrile] gave an Emax of 75 to 110% and a pEC50 greater than 8.00.

Work on `CCCn1cc(OC2CN(c3nc(-c4ccc(C#N)cc4F)c4nc(C(F)(F)F)n(C)c(=O)c4n3)C2)cn1` [Example 12, 3-fluoro-4-(7-methyl-8-oxo-2-(3-((1-propyl-1H-pyrazol-4-yl)oxy)azetidin-1-yl)-6-(trifluoromethyl)-7,8-dihydropyrimido[5,4-d]pyrimidin-4-yl)benzonitrile] yielded an Emax of 75 to 110% and a pEC50 of 6.00 to 7.00.

`Cn1c(C(F)(F)F)nc2c(-c3ccc(C#N)cc3F)nc(N3CC(Oc4nncs4)C3)nc2c1=O` [Example 2, 4-(2-(3-((1,3,4-thiadiazol-2-yl)oxy)azetidin-1-yl)-7-methyl-8-oxo-6-(trifluoromethyl)-7,8-dihydropyrimido[5,4-d]pyrimidin-4-yl)-3-fluorobenzonitrile] gave an Emax of less than 75% and a pEC50 of less than 6.00.

Work on `COc1cc(OC2CN(c3nc(-c4ccc(C#N)cc4F)c4nc(C(F)(F)F)n(C)c(=O)c4n3)C2)ccn1` [Example 21, 3-fluoro-4-(2-(3-((2-methoxypyridin-4-yl)oxy)azetidin-1-yl)-7-methyl-8-oxo-6-(trifluoromethyl)-7,8-dihydropyrimido[5,4-d]pyrimidin-4-yl)benzonitrile] yielded an Emax of 75 to 110% and a pEC50 greater than 8.00.

Work on `Cc1c(OC2CN(c3nc(-c4ccc(C#N)cc4F)c4nc(C(F)(F)F)n(C)c(=O)c4n3)C2)cnn1C` [Example 8, 4-(2-(3-((1,5-dimethyl-1H-pyrazol-4-yl)oxy)azetidin-1-yl)-7-methyl-8-oxo-6-(trifluoromethyl)-7,8-dihydropyrimido[5,4-d]pyrimidin-4-yl)-3-fluorobenzonitrile] yielded an Emax of less than 75% and a pEC50 of 6.00 to 7.00.
